Results from ChEMBL document CHEMBL1909294, “Translating clinical findings into knowledge in drug safety evaluation--drug induced liver injury prediction system (DILIps)” (PLoS Comput Biol, 2011).

What was measured:
[1] = test system: Hepatotoxicity;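 on HepSE Combined Scores: combined hepatic side effect score as listed in the training data of the Drug Induced Liver Injury Prediction System (DILIps)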;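 on HepSE bilirubinemia: bilirubinemia hepatic side effect score drawn from the DILIps training data, a prediction system for drug-induced liver injury; call rule not given here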;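 on HepSE cirrhosis: cirrhosis hepatic side effect score taken from the DILIps (drug-induced liver injury prediction) training set; call rule not given here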;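 on HepSE elevated liver function tests: hepatic side effect score for raised liver function tests, as recorded in the DILIps training set used for predicting drug-induced liver injury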;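 on HepSE hepatomegaly: hepatic side effect score for hepatomegaly, taken from the training set of the DILIps drug-induced liver injury prediction system; call rule not given here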; on HepSE liver disease: call rule not given here;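 on HepSE liver fatty: hepatic side effect score for fatty liver, taken from the DILIps training set for predicting drug-induced liver injury; call rule not given here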
[2] = test system: Hepatotoxicity; remark: listed apart in the source;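 on HepSE Combined Scores: combined hepatic side effect score as listed in the training data of the Drug Induced Liver Injury Prediction System (DILIps)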;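 on HepSE bilirubinemia: bilirubinemia hepatic side effect score drawn from the DILIps training data, a prediction system for drug-induced liver injury; call rule not given here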;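 on HepSE cirrhosis: cirrhosis hepatic side effect score taken from the DILIps (drug-induced liver injury prediction) training set; call rule not given here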;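 on HepSE elevated liver function tests: hepatic side effect score for raised liver function tests, as recorded in the DILIps training set used for predicting drug-induced liver injury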;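 on HepSE hepatomegaly: hepatic side effect score for hepatomegaly, taken from the training set of the DILIps drug-induced liver injury prediction system; call rule not given here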; on HepSE liver disease: call rule not given here;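 on HepSE liver fatty: hepatic side effect score for fatty liver, taken from the DILIps training set for predicting drug-induced liver injury; call rule not given here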
[3] = test system: Hepatotoxicity; remark: listed apart in the source;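 on HepSE Combined Scores: combined hepatic side effect score as listed in the training data of the Drug Induced Liver Injury Prediction System (DILIps)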;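 on HepSE bilirubinemia: bilirubinemia hepatic side effect score drawn from the DILIps training data, a prediction system for drug-induced liver injury; call rule not given here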;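 on HepSE cirrhosis: cirrhosis hepatic side effect score taken from the DILIps (drug-induced liver injury prediction) training set; call rule not given here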;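 on HepSE hepatomegaly: hepatic side effect score for hepatomegaly, taken from the training set of the DILIps drug-induced liver injury prediction system; call rule not given here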; on HepSE liver disease: call rule not given here;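 on HepSE liver fatty: hepatic side effect score for fatty liver, taken from the DILIps training set for predicting drug-induced liver injury; call rule not given here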
[4] = test system: Hepatotoxicity; remark: listed apart in the source;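 on HepSE Combined Scores: combined hepatic side effect score as listed in the training data of the Drug Induced Liver Injury Prediction System (DILIps)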;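 on HepSE bilirubinemia: bilirubinemia hepatic side effect score drawn from the DILIps training data, a prediction system for drug-induced liver injury; call rule not given here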;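 on HepSE cirrhosis: cirrhosis hepatic side effect score taken from the DILIps (drug-induced liver injury prediction) training set; call rule not given here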;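 on HepSE hepatomegaly: hepatic side effect score for hepatomegaly, taken from the training set of the DILIps drug-induced liver injury prediction system; call rule not given here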; on HepSE liver disease: call rule not given here;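 on HepSE liver fatty: hepatic side effect score for fatty liver, taken from the DILIps training set for predicting drug-induced liver injury; call rule not given here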
[5] = test system: Hepatotoxicity; remark: listed apart in the source; on HepSE liver disease: call rule not given here
[6] = test system: Hepatotoxicity; remark: listed apart in the source; on HepSE liver disease: call rule not given here
[7] = test system: Hepatotoxicity; remark: listed apart in the source
[8] = test system: Hepatotoxicity; remark: listed apart in the source
[9] = test system: Hepatotoxicity; remark: listed apart in the source
[10] = test system: Hepatotoxicity; remark: listed apart in the source
[11] = test system: Hepatotoxicity; remark: listed apart in the source
[12] = test system: Hepatotoxicity; remark: listed apart in the source
[13] = test system: Hepatotoxicity; remark: listed apart in the source
[14] = test system: Hepatotoxicity; remark: listed apart in the source

| Compound | HepSE_liver disease [1] | HepSE_bilirubinemia [2] | HepSE_hepatomegaly [3] | HepSE_cirrhosis [4] | HepSE_liver fatty [5] | HepSE_Combined Scores [6] | HepSE_elevated liver function tests [7] | HepSE_hepatic necrosis [8] | HepSE_cholecystitis [9] | HepSE_liver function tests abnormal [10] | HepSE_hepatitis [11] | HepSE_jaundice [12] | HepSE_cholelithiasis [13] | HepSE_hepatic failure [14] | HepSE_liver disease ([1]; Liver) | HepSE_bilirubinemia ([2]; Liver) | HepSE_hepatomegaly ([3]; Liver) | HepSE_cirrhosis ([4]; Liver) | HepSE_liver fatty ([5]; Liver) | HepSE_Combined Scores ([6]; Liver) | also measured |
| --- | --- | --- | --- | --- | --- | --- | --- | --- | --- | --- | --- | --- | --- | --- | --- | --- | --- | --- | --- | --- | --- |
| Clc1ccc(COC(Cn2ccnc2)c2ccc(Cl)cc2Cl)cc1 (configuration not stated) [ECONAZOLE] | 0 | 0 | 0 | 0 | 0 | 0 | 0 | 0 | 0 | 0 | 0 | 0 | 0 | 0 | – | – | – | – | – | – | – |
| O=C(O)CN(CCN(CC(=O)O)CC(=O)O)CC(=O)O [EDETIC ACID] | – | – | – | – | – | – | – | – | – | – | – | – | – | – | 0 | 0 | 0 | 0 | 0 | 0 | HepSE_elevated liver function tests ([7]; Liver): 0; HepSE_hepatic necrosis ([8]; Liver): 0; HepSE_cholecystitis ([9]; Liver): 0; HepSE_liver function tests abnormal ([10]; Liver): 0; HepSE_hepatitis ([11]; Liver): 0; HepSE_jaundice ([12]; Liver): 0; HepSE_cholelithiasis ([13]; Liver): 0; HepSE_hepatic failure ([14]; Liver): 0 |
| O=C1Nc2ccc(Cl)cc2[C@@](C#CC2CC2)(C(F)(F)F)O1 [EFAVIRENZ] | 0 | 0 | 1 | 0 | 0 | 4 | 0 | 0 | 0 | 0 | 1 | 1 | 0 | 1 | – | – | – | – | – | – | – |
| NCCCC(N)(C(=O)O)C(F)F (configuration not stated) [EFLORNITHINE] | 0 | 0 | 0 | 0 | 0 | 0 | 0 | 0 | 0 | 0 | 0 | 0 | 0 | 0 | – | – | – | – | – | – | – |
| CCOCCn1c(N2CCCN(C)CC2)nc2ccccc21 [EMEDASTINE] | 0 | 0 | 0 | 0 | 0 | 0 | 0 | 0 | 0 | 0 | 0 | 0 | 0 | 0 | – | – | – | – | – | – | – |
| Nc1nc(=O)n([C@@H]2CS[C@H](CO)O2)cc1F [EMTRICITABINE] | – | – | – | – | – | – | – | – | – | – | – | – | – | – | 0 | 0 | 0 | 0 | 0 | 0 | HepSE_elevated liver function tests ([7]; Liver): 0; HepSE_hepatic necrosis ([8]; Liver): 0; HepSE_cholecystitis ([9]; Liver): 0; HepSE_liver function tests abnormal ([10]; Liver): 0; HepSE_hepatitis ([11]; Liver): 0; HepSE_jaundice ([12]; Liver): 0; HepSE_cholelithiasis ([13]; Liver): 0; HepSE_hepatic failure ([14]; Liver): 0 |
| COc1ccc(C(=O)Nc2ccccc2CCC2CCCCN2C)cc1 (configuration not stated) [ENCAINIDE] | 0 | 0 | 0 | 0 | 0 | 2 | 0 | 0 | 0 | 0 | 1 | 1 | 0 | 0 | – | – | – | – | – | – | – |
| CCN(CC)C(=O)/C(C#N)=C/c1cc(O)c(O)c([N+](=O)[O-])c1 [ENTACAPONE] | 0 | 1 | 0 | 0 | 0 | 5 | 0 | 0 | 1 | 0 | 1 | 0 | 1 | 1 | – | – | – | – | – | – | – |
| NC1=NCC2c3ccccc3Cc3ccccc3N12 (configuration not stated) [EPINASTINE] | – | – | – | – | – | – | – | – | – | – | – | – | – | – | 0 | 0 | 0 | 0 | 0 | 0 | HepSE_elevated liver function tests ([7]; Liver): 0; HepSE_hepatic necrosis ([8]; Liver): 0; HepSE_cholecystitis ([9]; Liver): 0; HepSE_liver function tests abnormal ([10]; Liver): 0; HepSE_hepatitis ([11]; Liver): 0; HepSE_jaundice ([12]; Liver): 0; HepSE_cholelithiasis ([13]; Liver): 0; HepSE_hepatic failure ([14]; Liver): 0 |
| CNC[C@H](O)c1ccc(O)c(O)c1 [EPINEPHRINE] | – | – | – | – | – | – | – | – | – | – | – | – | – | – | 0 | 0 | 0 | 0 | 0 | 0 | HepSE_elevated liver function tests ([7]; Liver): 0; HepSE_hepatic necrosis ([8]; Liver): 0; HepSE_cholecystitis ([9]; Liver): 0; HepSE_liver function tests abnormal ([10]; Liver): 0; HepSE_hepatitis ([11]; Liver): 0; HepSE_jaundice ([12]; Liver): 0; HepSE_cholelithiasis ([13]; Liver): 0; HepSE_hepatic failure ([14]; Liver): 0 |
| COC(=O)[C@@H]1CC2=CC(=O)CC[C@]2(C)[C@@]23O[C@@H]2C[C@@]2(C)[C@@H](CC[C@@]24CCC(=O)O4)[C@H]13 [EPLERENONE] | 0 | 0 | 0 | 0 | 0 | 1 | 0 | 0 | 0 | 0 | 0 | 0 | 0 | 1 | – | – | – | – | – | – | – |
| CCCCC[C@H](O)/C=C/[C@@H]1[C@H]2C/C(=C/CCCC(=O)O)O[C@H]2C[C@H]1O [EPOPROSTENOL] | 0 | 0 | 0 | 0 | 0 | 1 | 0 | 0 | 0 | 0 | 0 | 0 | 0 | 1 | – | – | – | – | – | – | – |
| CCCCc1ncc(/C=C(\Cc2cccs2)C(=O)O)n1Cc1ccc(C(=O)O)cc1 [EPROSARTAN] | 0 | 0 | 0 | 0 | 0 | 0 | 0 | 0 | 0 | 0 | 0 | 0 | 0 | 0 | – | – | – | – | – | – | – |
